Source: EPA's ToxValDB 9.5

What was measured:
[1] = tested on: Rattus norvegicus
[2] = tested on: Canidae; settings: chronic; oral; Dog Other
[3] = subchronic, duration: 90 days, no effects
[4] = subchronic, duration: 90 days, clinical chemistry
[5] = subchronic, duration: 90 days, oral, diet, M/F, Sprague-Dawley, histopathology: nonneoplastic

CCCCCO [1-Pentanol] was tested, and the NOAEL ([1]; subchronic, duration: 90 days, oral, gavage, no effects) was 1000 mg/kg-day.
In the case of CC1OCCC1=O (stereo unspecified) [2-Methyltetrahydrofuran-3-one], the NOAEL [1, 3] is reported as 91 mg/kg-day.
Cc1occc1S [2-Methyl-3-furanthiol] showed an NOAEL [1, 3] of 5 mg/kg-day.
In the case of NC(N)=O [Urea], the LD50 ([1]; acute, oral, mortality) is reported as 14300 mg/kg-day and the NOEL ([1]; reproduction developmental, reproduction) is reported as 2250 mg/kg-day.
Compound CC1=C[C@H](O)CC(C)(C)[C@H]1/C=C/C(C)=C/C=C/C(C)=C/C=C/C=C(C)/C=C/C=C(C)/C=C/C1=C(C)C[C@@H](O)CC1(C)C [Lutein A] has an LEL ([1]; subchronic, duration: 13 weeks, oral, no effects) of 260 mg/kg-day and an NOAEL ([1]; subchronic, duration: 90 days, oral, diet, M/F, Wistar, no effects) of 200 mg/kg-day.
CCCSSSCCC [Dipropyl trisulfide] showed an NOEL ([1]; subchronic, duration: 13 weeks, oral, gavage) of 4.8 mg/kg-day.
Compound O=C(O)c1cc(O)c(O)c(O)c1 [Gallic acid] has an NOAEL ([1]; subchronic, duration: 13 weeks, oral, M/F, organ weight) of 119 mg/kg-day.
Work on COc1cccc(OC)c1 [1,3-Dimethoxybenzene] yielded an NOAEL ([1]; subchronic, duration: 90 days, oral, no effects) of 10 mg/kg-day.
With CCC[CH2][Sn]([CH2]CCC)([CH2]CCC)[O][Sn]([CH2]CCC)([CH2]CCC)[CH2]CCC [Bis(tributyltin)oxide] the NOAEL ([1]; chronic, duration: 2 years, oral, diet, M/F, Wistar, histopathology: neoplastic) was 0.025 mg/kg-day.
For C=CCN=C=S [Allyl isothiocyanate], the LOAEL ([1]; chronic, duration: 103 weeks, oral, gavage, M, histopathology: nonneoplastic) was 9 mg/kg-day and the NOAEL ([1]; chronic, duration: 721 days, oral, gavage, M/F, histopathology: neoplastic) was 12 mg/kg-day.
C/C=C/C=C/C(=O)O [2E,4E-Hexadienoic acid] was tested, and the NOAEL ([1]; reproduction developmental, oral, gavage, M/F, Crj:CD, body weight) was 300 mg/kg-day.
In the case of CC1=C(/C=C/C(C)=C/C=C/C(C)=C/C=C/C=C(C)/C=C/C=C(C)/C=C/C2=C(C)C[C@@H](O)CC2(C)C)C(C)(C)C[C@H](O)C1 [Zeaxanthin], the NOAEL ([1]; reproduction developmental, oral, M/F, reproduction) is reported as 150 mg/kg-day.
CC(=O)N[C@H]1[C@H](O[C@H]2[C@@H](O)[C@@H](CO)O[C@@H](O[C@H]3[C@H](O)[C@@H](O)C(O)O[C@@H]3CO)[C@@H]2O)O[C@H](CO)[C@@H](O)[C@@H]1O[C@@H]1O[C@H](CO)[C@H](O)[C@H](O)[C@H]1O (stereo partly specified) [Lacto-N-tetraose] was tested, and the NOAEL ([1]; subchronic, duration: 90 days, oral, M/F, Wistar) was 5000 mg/kg-day.
For O=C1CCCCCN1 [Caprolactam], the NOEL ([1]; subchronic, duration: 90 days, oral, diet) was 750 mg/kg-day.
For CC(C)[C@@H]1CC[C@@H](C)C[C@@H]1NC(=O)C1CC1, the NOAEL ([1]; subchronic, duration: 90 days, oral, diet, M/F, Sprague-Dawley, body weight) was 147 mg/kg-day.
O=C([O-])c1ccccn1.O=C([O-])c1ccccn1.O=C([O-])c1ccccn1.[Cr+3] [Chromium picolinate] showed an NOAEL ([1]; chronic, duration: 2 years, M/F, Fischer 344, no effects) of 2400 mg/kg-day.
[Cl][Sn][Cl] [Stannous chloride] showed an NOAEL ([1]; subchronic, duration: 90 days, oral, diet, M/F, Wistar, body weight) of 63 mg/kg-day.
For CCOC(C)(C)C [Ethyl t-butyl ether], the NOAEL ([1]; chronic, duration: 6 months, oral, gavage, M/F, Sprague-Dawley, organ weight) was 100 mg/kg-day.
Clc1ccc(-c2ccc(Cl)c(Cl)c2Cl)c(Cl)c1Cl [2,2',3,3',4,4'-Hexachlorobiphenyl] gave an NOAEL [1, 4] of 0.8 mg/kg-day.
Compound CCCCC(CC)COC(=O)c1ccc(N(C)C)cc1 (stereo unspecified) [2-Ethylhexyl 4-(dimethylamino)benzoate] has an NOAEL ([1]; short-term, duration: 4 weeks, M/F, histopathology: nonneoplastic) of 100 mg/kg-day.
Cc1cc2nc3c(=O)[nH]c(=O)nc-3n(C[C@H](O)[C@H](O)[C@H](O)CO)c2cc1C [Riboflavin] was tested, and the NOAEL ([1]; subchronic, duration: 90 days, M/F, Wistar, no effects) was 160 mg/kg-day.
For NC(N)=NCCC[C@H](N)C(=O)O [L-Arginine], the NOAEL ([1]; subchronic, duration: 13 weeks, M/F, Crj:CD, no effects) was 3.13 mg/kg-day.
Work on CC1SCCSS1 (stereo unspecified) [1,2,4-Trithiane, 3-methyl-] yielded an NOEL ([1]; subchronic, duration: 13 weeks, oral, diet) of 0.3 mg/kg-day.
For Clc1cc(Cl)c(-c2cc(Cl)c(Cl)cc2Cl)cc1Cl [2,2',4,4',5,5'-Hexachlorobiphenyl], the NOAEL [1, 4] was 1.2 mg/kg-day.
CSCc1ccccc1 [Benzyl methyl sulfide] gave an NOAEL ([1]; subchronic, duration: 90 days, oral) of 0.43 mg/kg-day.
CC1=NCCS1 [Thiazole, 4,5-dihydro-2-methyl-] showed an NOAEL ([1]; subchronic, duration: 90 days) of 1.8 mg/kg-day and an NOAEL ([1]; subchronic, duration: 90 days, oral, diet, M/F, no effects) of 1.8 mg/kg-day.
Compound CC(=O)c1nccs1 [2-Acetylthiazole] has an NOAEL ([1]; subchronic, duration: 90 days, oral, diet, body weight) of 50 mg/kg-day.
Work on C/C=C/C=C\CC/C=C/C(=O)NCC(C)C [(E,Z,E)-N-(2-Methylpropyl)-2,6,8-decatrienamide] yielded an NOAEL [1, 5] of 23.4 mg/kg-day.
Oc1ccccc1 [Phenol] showed an NOAEL ([1]; developmental, duration: 10 days, oral, gavage, F, Sprague-Dawley, development) of 120 mg/kg-day and an NOAEL ([1]; reproduction developmental, duration: 10 days, oral, gavage, F, body weight) of 60 mg/kg-day.
NC[C@@H]1O[C@H](O[C@H]2[C@@H](O)[C@H](O[C@@H]3[C@@H](O)[C@H](N)C[C@H](N)[C@H]3O[C@H]3O[C@H](CO)[C@@H](O)[C@H](O)[C@H]3N)O[C@@H]2CO)[C@H](N)[C@@H](O)[C@@H]1O.O=S(=O)(O)O [Paromomycin sulfate] gave an NOEL [2] of 3.4 mg/kg-day.
In the case of C=C(C)C1CC=C(C)CC1 (stereo unspecified) [Limonene], the NOAEL ([1]; chronic, duration: 103 weeks, oral, gavage, F, mortality) is reported as 215 mg/kg-day and the NOEL ([1]; subchronic, duration: 13 weeks, histopathology: nonneoplastic) is reported as 10 mg/kg-day.
In the case of CC(C)(C)c1ccc(OP(Oc2ccc(C(C)(C)C)cc2C(C)(C)C)Oc2ccc(C(C)(C)C)cc2C(C)(C)C)c(C(C)(C)C)c1 [Tris(2,4-di-tert-butylphenyl) phosphite], the NOAEL ([1]; chronic, duration: 2 years, oral, no effects) is reported as 58 mg/kg-day.
Compound CC(=O)c1ccc[nH]1 [2-Acetylpyrrole] has an NOAEL ([1]; subchronic, duration: 90 days, oral, M/F, Sprague-Dawley, histopathology: neoplastic) of 0.048 mg/kg-day, an NOAEL [1, 5] of 48 mg/kg-day and an NOAEL ([1]; subchronic, duration: 90 days, oral, gavage, M, hematological) of 48 mg/kg-day.
